Here are results for 7 compounds from patent US20120316186A1, “DEAZAPURINES USEFUL AS INHIBITORS OF JANUS KINASES” (priority 2006, published 2012).

A word on the Ki: it is a dissociation constant, usually derived from enzyme kinetics or from competition with a known ligand.

The target of one test is T1, JAK3 (Homo sapiens, UniProt P52333).
T1 sequence (P52333 1-1124): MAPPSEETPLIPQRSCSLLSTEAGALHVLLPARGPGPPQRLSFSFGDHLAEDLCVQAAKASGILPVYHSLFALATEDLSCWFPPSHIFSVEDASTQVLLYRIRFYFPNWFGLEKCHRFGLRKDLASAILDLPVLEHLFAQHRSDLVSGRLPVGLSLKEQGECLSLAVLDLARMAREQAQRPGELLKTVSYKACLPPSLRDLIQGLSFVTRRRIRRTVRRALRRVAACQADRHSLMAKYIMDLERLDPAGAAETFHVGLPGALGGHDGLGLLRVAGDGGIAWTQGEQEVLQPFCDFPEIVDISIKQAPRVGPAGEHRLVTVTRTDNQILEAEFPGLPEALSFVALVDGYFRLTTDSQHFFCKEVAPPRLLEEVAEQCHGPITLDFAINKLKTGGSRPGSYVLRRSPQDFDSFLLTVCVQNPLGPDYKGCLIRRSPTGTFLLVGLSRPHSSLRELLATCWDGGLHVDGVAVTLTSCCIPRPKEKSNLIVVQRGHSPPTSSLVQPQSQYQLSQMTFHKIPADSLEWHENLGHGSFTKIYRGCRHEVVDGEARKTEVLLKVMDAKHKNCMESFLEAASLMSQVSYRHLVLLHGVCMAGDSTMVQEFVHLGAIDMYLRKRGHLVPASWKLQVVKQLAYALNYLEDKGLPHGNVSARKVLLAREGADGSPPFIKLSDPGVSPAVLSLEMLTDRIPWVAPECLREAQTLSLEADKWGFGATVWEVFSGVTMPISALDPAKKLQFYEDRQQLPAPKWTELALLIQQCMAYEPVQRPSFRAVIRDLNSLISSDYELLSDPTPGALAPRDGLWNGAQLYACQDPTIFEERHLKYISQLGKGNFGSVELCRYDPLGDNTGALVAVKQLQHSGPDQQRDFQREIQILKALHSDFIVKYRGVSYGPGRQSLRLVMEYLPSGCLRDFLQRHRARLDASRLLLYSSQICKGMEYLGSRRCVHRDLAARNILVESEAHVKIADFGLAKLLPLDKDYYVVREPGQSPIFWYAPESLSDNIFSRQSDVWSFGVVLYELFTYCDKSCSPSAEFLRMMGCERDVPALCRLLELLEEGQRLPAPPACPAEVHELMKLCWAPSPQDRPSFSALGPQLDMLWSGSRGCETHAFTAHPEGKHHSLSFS
Briefly: JAK3 Inhibition Assay. The test is classed as biochemical. The settings on record: 1 μM poly(Glu)4Tyr, 5 μM ATP, 1 nM JAK3, 25° C.; read-out: JAK3 enzyme inhibition data (Ki). On the procedure:
(§1) Compounds were screened for their ability to inhibit JAK3 using the assay shown below. Reactions were carried out in a kinase buffer containing 100 mM HEPES (pH 7.4), 1 mM DTT, 10 mM MgCl2, 25 mM NaCl, and 0.01% BSA. Substrate concentrations in the assay were 5 μM ATP (200 uCi/μmole ATP) and 1 μM poly(Glu)4Tyr. Reactions were carried out at 25° C. and 1 nM JAK3.
(§2) To each well of a 96 well polycarbonate plate was added 1.5 μl of a candidate JAK3 inhibitor along with 50 μl of kinase buffer containing 2 μM poly(Glu)4Tyr and 10 μM ATP. This was then mixed and 50 μl of kinase buffer containing 2 nM JAK3 enzyme was added to start the reaction. After 20 minutes at room temperature (25° C.), the reaction was stopped with 50 μl of 20% trichloroacetic acid (TCA) that also contained 0.4 mM ATP. The entire contents of each well were then transferred to a 96 well glass fiber filter plate using a TomTek Cell Harvester. After washing, 60 μl of scintillation fluid was added and ^33P incorporation detected on a Perkin Elmer TopCount.

The target of another test is JAK2 (Homo sapiens, UniProt O60674). As to the kind of experiment: JAK2 Inhibition Assay. Format: biochemical. The conditions noted are these: 15 μM poly(Glu)4Tyr, 12 μM ATP; read-out: JAK2 enzyme inhibition data (Ki). On the procedure:
as §1, §2
The assays were as described above in Example 36 except that JAK-2 enzyme was used, the final poly(Glu)4Tyr concentration was 15 μM, and final ATP concentration was 12 μM.

Chain of JAK2 (O60674 whole entry): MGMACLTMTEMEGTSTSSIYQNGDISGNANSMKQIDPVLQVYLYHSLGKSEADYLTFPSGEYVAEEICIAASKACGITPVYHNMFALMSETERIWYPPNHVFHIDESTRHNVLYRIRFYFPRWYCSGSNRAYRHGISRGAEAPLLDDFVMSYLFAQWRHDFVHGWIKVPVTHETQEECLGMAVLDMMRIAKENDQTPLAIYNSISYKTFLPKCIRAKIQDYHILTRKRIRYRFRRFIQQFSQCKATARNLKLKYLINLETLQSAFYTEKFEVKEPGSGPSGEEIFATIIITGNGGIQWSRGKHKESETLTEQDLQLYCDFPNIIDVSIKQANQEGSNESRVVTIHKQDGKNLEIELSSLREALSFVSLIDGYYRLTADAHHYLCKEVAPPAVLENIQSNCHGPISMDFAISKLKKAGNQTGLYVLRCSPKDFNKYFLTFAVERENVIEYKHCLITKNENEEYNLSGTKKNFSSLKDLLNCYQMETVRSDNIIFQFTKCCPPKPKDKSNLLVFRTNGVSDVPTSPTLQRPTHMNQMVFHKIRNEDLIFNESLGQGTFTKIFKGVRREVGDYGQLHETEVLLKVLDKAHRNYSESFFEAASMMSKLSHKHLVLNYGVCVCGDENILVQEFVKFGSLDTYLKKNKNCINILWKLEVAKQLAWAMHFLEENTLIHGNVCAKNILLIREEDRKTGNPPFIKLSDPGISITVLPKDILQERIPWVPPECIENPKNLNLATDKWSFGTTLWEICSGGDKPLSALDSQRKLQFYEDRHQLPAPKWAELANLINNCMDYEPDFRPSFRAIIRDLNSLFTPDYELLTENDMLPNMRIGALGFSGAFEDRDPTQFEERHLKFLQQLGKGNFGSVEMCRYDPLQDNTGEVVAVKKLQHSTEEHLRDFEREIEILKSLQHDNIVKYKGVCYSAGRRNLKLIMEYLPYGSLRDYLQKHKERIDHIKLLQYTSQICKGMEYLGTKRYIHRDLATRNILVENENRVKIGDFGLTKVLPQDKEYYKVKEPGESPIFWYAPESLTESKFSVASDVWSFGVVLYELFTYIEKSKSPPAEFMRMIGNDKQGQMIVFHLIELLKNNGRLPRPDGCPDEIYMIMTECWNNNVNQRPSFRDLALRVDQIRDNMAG

As for `CC(CC(=O)Nc1nc(-c2ncnc3[nH]ccc23)cs1)CC(C)(C)C` (centres unmarked) [Compound 33], the Ki on JAK3 is 100 to 500 nM; on JAK2, less than 100 nM.

For the compound `O=C(Nc1nc(-c2ncnc3[nH]ccc23)cs1)C1CCCOC1` (centres unmarked) [Compound 61], the Ki on JAK3 and at JAK2 was less than 100 nM throughout.

`O=C(c1cc(-c2ncnc3[nH]ccc23)c[nH]1)N(CCC(F)(F)F)CC1CC1` [Compound 110]: the Ki on JAK3 and on JAK2 was less than 100 nM in each case.

For the compound `N#CCCN(C(=O)c1cc(-c2ncnc3[nH]ccc23)c[nH]1)C1CCCC1` [Compound 139], the Ki is 100 to 500 nM at JAK3 and less than 100 nM at JAK2.

Regarding `O=C(O)CC1(CC(=O)Nc2nc(-c3ncnc4[nH]ccc34)cs2)CCCC1` [Compound 143], the Ki on JAK3 and at JAK2 was 100 to 500 nM in each case.

For the compound `O=C(O)C1CCCCC1C(=O)Nc1nc(-c2ncnc3[nH]ccc23)cs1` (centres unmarked) [Compound 144], the Ki at JAK3 and on JAK2 was 100 to 500 nM throughout.

As to `O=C(Cc1ccccc1F)Nc1nc(-c2ncnc3[nH]ccc23)cs1` [Compound 156], the inhibitory constant (Ki) on JAK3 is 100 to 500 nM; at JAK2 it was less than 100 nM.
